Test results: US20110021455A1, “STERILISED SUCRALFATE GEL” (PIERRE FABRE DERMO-COSMETIQUE, priority 2008, published 2011)

Columns and labels:
[1] = Sterilisation with ethylene oxide; type: physicochemical; conditions: requires a long and costly desorption phase
[2] = Sterilisation by gamma rays; type: physicochemical; conditions: in the form of powder and gel; composition yellows
From the text: In fact, after various tests, it seemed that sucralfate, both in the form of powder and gel, is unstable during sterilisation by gamma rays since the composition yellows.

For sucralfate, the “adsorption of ethylene oxide on sucralfate during sterilisation” value [1] was “substantial adsorption” and the “stability during sterilisation by gamma rays” value [2] was “unstable”.
